Tests used:
AXL pY = assay: Short term p-AXL up-regulation (bead-based immunoassay); format: cell-based; details: 2 h; MDAMB231
Source text: pTyr-RTK measurements used bead-based immunocapture with a pan-pTyr detection antibody (EMD Millipore, Billerica, Mass.). Unless otherwise stated, immunoassays followed manufacturer protocols. Bead-based immunoassays were routinely normalized according to the micro BCA protein assay (Pierce) or cell count (ViCell). ADAM17 (pThr^735) and ADAM10 western blot Abs were from Sigma. Anti-phospho Histone H3 (Ser10) for measuring mitotic index was from EMD Millipore, (Billerica, Mass.). GAPDH (glyceraldehyde-3-phosphate dehydrogenase) and α-actinin were used for Western blotting and purchased from Cell Signaling Technology (Danvers, Mass.). APP Ab was from Abcam (Cambridge, Mass.). Live-cell immunostaining was performed using R&D Systems (Minneapolis, Minn.) Abs. SiRNAs, including non-targeting control siRNA, were packaged as SMARTpool ON-TARGETplus and used with DharmaFECT4 (Thermo Scientific, Tewksbury, Mass.). For ADAM10/17 western blots, lysis was performed with 50 mM tris-HCl (pH 7.5), 10% glycerol, 150 mM NaCl, and 1% NP-40, with complete protease (Roche, Nutley, N.J.) and phosphatase (Boston BioProducts, Ashland, Mass.) inhibitors added immediately before use.

p-JNK = assay: Short term BB94-elicited downstream phosphosignaling (bead-based immunoassay); format: cell-based; details: 2 h
[1] = tested on: AXL association with MET and HER2; assay: RTK cross-linking and bead-based co-I.P.; format: cell-based; details: 2 h; MDAMB231
Protocol: MDA-MB231 cells were plated at 90% confluency on three 10-cm plates for each condition, serum starved for 4 h the following day, and treated with inhibitor in serum-free media for 2 h. Cells were then cross-linked with 1 mM EGS for 30 min at 4° C., lysed. Receptor cross-linking was measured using a modified MET and HER2 Luminex Bioplex assay, as previously described (Meyer, A. S., Miller, M. A., Gertler, F. B., and Lauffenburger, D. A. (2013). The receptor AXL diversifies EGFR signaling and limits the response to EGFR-targeted inhibitors in triple-negative breast cancer cells. Sci Signal 6, ra66).

sheddase substrates = assay: Supernatant accumulation of sheddase substrates (ELISA, bead-based immunoassay); details: for supernatant RTK accumulation: multiple cancer types
Protocol: The following inhibitors were used in FIG. 1H, at the following concentrations: metalloproteinase inhibitor BB94 (10 μM; Tocris Bioscience), p38 inhibitor SB203580 (20 μM; Selleck Chem), MEK1/2 inhibitor PD0325901 (10 μM; LC Labs), Met/AXL inhibitor XL-880 (5 μM; Selleck Chem), MEK1/2 inhibitor U0126 (10 μM; Selleck Chem), MEK1/2 inhibitor AZD6244 (10 μM; Selleck Chem), Aurora kinase inhibitor VX-680 (10 μM; Selleck Chem), PI3K inhibitor LY294002 (10 μM; Selleck Chem), JNK1/2 inhibitor JNK-IN-8 (3 μM; courtesy Nathaniel Gray, Harvard Medical School), JNK inhibitor SP600125 (10 μM; LC Labs), EGFR inhibitor gefitinib (1 μM; LC Labs), EGFR inhibitor erlotinib (1 μM; LC Labs), JNK inhibitor TCS-6o (1 μM; Tocris Bioscience), Abl inhibitor imatinib (1 μM; LC Labs), EGFR/HER2 inhibitor lapatinib (1 μM; LC Labs), AXL inhibitor R428 (3 μM; Selleck Chem), Alk5 inhibitor ALX-270-448 (5 μM; Enzo life sciences), AXL/MET inhibitor MP470 (5 μM; Selleck Chem), myosin light chain kinase inhibitor ML7 (1 μM; Sigma), and glycogen synthase kinase 3b inhibitor SB216763 (10 μM; Selleck Chem) Inhibitor concentrations were chosen based roughly on exceeding previously published Ki and IC50 values. The ADAM-10 inhibitor pro-ADAM-10 was from Biozyme, Inc. (St. Joseph, Mo.) and was used at 4 μM.
AXL, MET, TNFR1, and EGF-ligand supernatant measurements were performed using duo-set ELISA kits (R&D Systems, Minneapolis, Minn.). Total RTK measurements for HER2 and HER4 were performed using bead-based immunoassays (EMD Millipore, Billerica, Mass.).
For quantification of supernatant protein levels, cell supernatant was collected at the indicated time-point, spun for 5 min at 300 g, and frozen at −80° C. for future use. Supernatants were routinely normalized to cell count, determined via trypsinization and ViCell (Beckman Coulter, Brea, Calif.), and volumes were kept consistent across treatments.
As shown in FIG. 3A-3B, MDA-MB231 cells were treated with siRNA as described above and were seeded in 96-well plates at equal 90% confluency. Media was changed at 48 h post-transfection, and 24 h later supernatant was collected and cells were analyzed by live-cell immunostaining. For proADAM10 treatment, cells were seeded in 96-well plates at 90% confluency, treated with inhibitor or buffer control the following day, and supernatant was collected 24 h later.

MDAMB-231 = assay: Loewe synergy of MEKi/AXLi cell count, with or without BB94; format: cell-based; details: 72 h; addition of 10 uM BB94
Protocol: (§1) Drugs were purchased from Selleck Chem (Houston, Tex.) and LC Labs (Woburn, Mass.). Cells were grown as described by manufacturers' guidelines. OVCA-429 were grown in RPMI+10% FBS. To calculate Loewe synergy, a computational model was used (Greco, W. R., et al., Pharmacol Rev., 47(2):331-85 (1995)) and the synergy term a was computationally inferred using Matlab (Mathworks; Natick, Mass.). Statistical significance was determined by leave-one-out jackknife error estimation (Efron, B. and Gong, G., Amer Stat.; 37(1):36-48 (1983)). For both MDAMB-231 and OVCA-429 synergy calculations, the modeling was fit to data from treatment at the MEKi concentrations of 7 μM, 2 μM, 0.7 μM, and 0.02 μM and R428 concentrations of 1.5 μM, 0.75 μM, 0.38 μM, and 0.19 μM. For cell growth assays, 5000 cells were plated per well in a 96-well plate, treated with drugs the following day, and counted at 72 h according to either a rezasurin assay (PrestoBlue; Life Technologies, Grand Island, N.Y.) using manufacturer's guidelines, or by flow cytometry following trypsinization and immediate analysis on an LSR-II (BD Biosciences, San Jose, Calif.).

[2] = tested on: OVCA-429 ovarian cancer cells; assay: as above; format: cell-based; details: 72 h; addition of 10 uM BB94
Protocol: as §1

mitotic index = assay: Cell cycle analysis (mitotic index by FACS); format: cell-based
Protocol: Cells were trypsinized, rinsed in 4° C. PBS, fixed in 70% 4° C. ethanol overnight, rinsed, and permeabilized in 0.1% Triton-X-100. Cells were then blocked for 1 h in PBS+3% FBS, incubated with anti-phospho-Histone H3 (pSer^10) for 1 h, rinsed, incubated with Alexa647-conjugated 2° Ab, and again rinsed. Lastly, cells were finally incubated at 37° C. for 1 h with 40 μg/ml propidium iodide and 100 μg/ml RNaseA, and again rinsed. Mitotic index was calculated by interpreting DNA-content histograms as described previously (Watson, J. V., Chambers, S. H. & Smith, P. J. A pragmatic approach to the analysis of DNA histograms with a definable G1 peak. Cytometry 8, 1-8 (1987)) in Matlab (Mathworks, Natick, Mass.) and gating for G2/M phase cells with high p-Histone-H3 staining.

[3] = tested on: ovarian carcinoma and malignant melanoma; assay: Combination drug treatment cell growth assay, 72 h; format: cell-based
Protocol: Drugs were purchased from Selleck Chem (Houston, Tex.) and LC Labs (Woburn, Mass.). Cells were grown as described by manufacturers' guidelines. […] For cell growth assays, 5000 cells were plated per well in a 96-well plate, treated with drugs the following day, and counted at 72 h according to either a rezasurin assay (PrestoBlue; Life Technologies, Grand Island, N.Y.) using manufacturer's guidelines, or by flow cytometry following trypsinization and immediate analysis on an LSR-II (BD Biosciences, San Jose, Calif.).

[4] = tested on: supernatant TIMP-1 and -3; assay: Antibody microarray analysis of MDA-MB231 supernatant; format: cell-based; details: 24 h; MDAMB231; Ab-microarray
Protocol: MDA-MB231 cells were plated in 10 cm plates at 70% confluency, treated the following day with either DMSO or PD325901, and supernatant was collected 24 hours (h) later. Using L-1000 RayBio (Norcross Ga.) microarrays, supernatant was processed according to manufacturer instructions. Two biological replicate samples were analyzed for the control and MEKi conditions, with one sample undiluted and the other diluted 1:5 in growth media. Each array contains duplicate antibody spots, and so a total of n=4 replicates was used to determine significant changes in supernatant proteins. Only proteins measured more than four standard deviations above background for at least one condition were included in the analysis. Gene set enrichment analysis was performed as previously described using gene ontology (GO) gene sets (Subramanian, A. et al., Gene set enrichment analysis: a knowledge-based approach for interpreting genome-wide expression profiles. Proc Natl Acad Sci USA 102, 15545-15550 (2005)). […] The other top gene-sets were “intrinsic to membrane”, “integral to membrane”, “receptor activity”, and “intrinsic to plasma membrane”. The highest enrichment score in PD325901-treated cells was for “hematopoietin interferon class-D200 domain cytokine receptor binding” comprising 10 non-transmembrane proteins, with a corresponding p-value of 0.003.

panel of cell lines = assay: Proliferation/cytotoxicity cell count by flow cytometry; format: cell-based; details: individual drug treatment; rough approximation
Protocol: Proliferation and cytotoxicity were assessed by gently rinsing cells, trypsinizing for 15 min, and immediately counting cells by flow-cytometry. Live/dead staining routinely confirmed the majority (>98%) of counted cells to be alive using this procedure. Synergy was calculated using the model of Bliss independence (Bliss, C. I. The toxicity of poisons applied jointly Annals of applied biology 26, 585-615 (1939)), reported herein as the ratio of [observed combination effect size]/[predicted combination effect size], such that values >1 indicate super-additive drug effect, or synergy, and values <1 indicate antagonism. Drug concentrations for synergy measurements were chosen to roughly approximate the IC30 value averaged across the panel of cell lines for the individual drug treatments, and were 20 μM U0126, 7 μM PD325901, and 200 nM R428.

surface AXL = details: 24 hours; 10 cell lines; more in lines with AXLi/MEKi synergy
Protocol: Cells were trypsinized, rinsed in 4° C. phospho-buffered saline (PBS)+3% FBS, incubated with 1° Ab (i.e., primary antibody) in PBS+3% FBS for 1 h, rinsed, and fixed overnight in PBS+1% formaldehyde at 4° C. The following day, cells were rinsed, incubated with 2° Ab (i.e., secondary antibody) conjugated to either Alexa647 or Alexa546, rinsed, and analyzed by flow cytometry. Fold-change was determined after subtracting the median fluorescence from control cells stained with the IgG control antibody.

ADAM17 = ADAM17 dimerization (s-EGS cross-linking, western blot); format: cell-based; details: 3 h; MDA-MB231, MDA-MB157, BT549
Protocol: For each condition, two confluent 15 cm plates of cells were serum-starved for 4 h, treated with inhibitor for 3 h, rinsed with 4° C. PBS, incubated with 0.5 mg/ml sulfo-EGS (Pierce) for 30 min., and lysed in 1% NP40 buffer. Lysates were clarified, precleared with agarose resin, incubated with protein A/G resin (Pierce) and anti-ADAM17 antibody (R&D Systems Duo-set) overnight, washed, and then boiled in denaturing lysis buffer. Methods roughly follow previously described protocols (Miller, M. A., Meyer, A. S., Beste, M. T., Lasisi, Z., Reddy, S., Jeng, K. W., Chen, C. H., Han, J., Isaacson, K., Griffith, L. G. et al. (2013). ADAM-10 and -17 regulate endometriotic cell migration via concerted ligand and receptor shedding feedback on kinase signaling, Proc Natl Acad Sci USA 110, E2074-E2083; Xu, P., Liu, J., Sakaki-Yumoto, M., and Derynck, R. (2012). TACE activation by MAPK-mediated regulation of cell surface dimerization and TIMP3 association, Sci Signal 5, ra34).

MDA-MB231-LM2 cells = assay: Orthotopic xenograft model of TNBC: tumor growth, metastasis, immunostaining, plasma receptors; format: in vivo, mice; details: primary tumors, 21 days after treatment
Protocol: For orthotopic mammary transplant assays, 6-week-old female NOD/SCID-gamma mice (JAX) were anesthetized by intraperitoneal (i.p.) injection of 125-250 mg/kg body weight of Avertin (reconstituted in PBS), followed by i.p. injection of 100 μL, of 12 μg/mL buprenorphine for analgesia. A small incision was made on the right flank, and 250,000 MDA-MB231-LM2 cells in 25 μL, of HBSS were injected into the right #4 fat pad using a 25-μL Hamilton syringe. Mice received three additional i.p. injections of 100 μL, of 12 μg/mL buprenorphine at 12 h intervals following the surgery. […] Twenty (20) days post-surgery, when tumor size was palpable, mice were ranked by tumor size and semi-randomly divided into four groups of equal distribution in tumor size. […]
MET and AXL levels were quantified by measuring fluorescent staining intensity over a line drawn radially from the tumor edge towards the tumor core. […] Regions with morphology characteristic of stroma or necrosis were generally avoided during quantification. Peak intensities along the line were confirmed by visual inspection as corresponding to cell membranes, and were quantified and indexed according to the distance from the tumor edge.

LOX-IMVI cells = assay: Xenograft mouse model of melanoma; parameters: species or system mice; details: in vivo
Protocol: For the xenograft melanoma experiment, 7 week old female athymic nude mice (Taconic) were injected with 1×10^6 LOX-IMVI cells in 1:1 Matrigel:HBSS subcutaneously in each flank (Yang, D., et al. “RasGRP3, a Ras activator, contributes to signaling and the tumorigenic phenotype in human melanoma.” Oncogene 30, no. 45: 4590-4600 (2011)). 7 days post-cell injection, tumors were measured by calipers and mice were ranked by tumor size and semi-randomly divided into 6 groups of equal distribution in tumor size, with 10 mice per group. […]
Tumor volumes was measured two to three times a week, estimated using the spherical tumor volume formula V=4/3πr^3, where r is averaged from 4 caliper measurements performed by two blinded researchers. […] For metastasis quantification, the numbers of metastases were counted in paraffin-embedded, H&E-stained sections, by a blinded researcher. Upon sacrifice, blood was collected via cardiac puncture into a heparinized syringe, immediately centrifuged at 2000×g for 20 min, and plasma fraction was stored at −80° C. for later quantification of receptor levels by ELISA and bead-based immunoassay.

CNC(=O)[C@H](Cc1ccccc1)NC(=O)[C@H](CC(C)C)[C@H](CSc1cccs1)C(=O)NO [BB94] was tested, and the “total AXL pY” value (AXL pY) was “increases”, the phosphosignaling (p-JNK; MDAMB231) was “increases phosphosignaling in an AXL-dependent manner” and the “AXL association with MET and HER2” value [1] was “increases”. For the same molecule, the “supernatant RTK accumulation” value (sheddase substrates; 24 h) was “reduced supernatant RTK accumulation”, the “Loewe synergy (interaction term α) of PD325901 and R428” value (MDAMB-231) was “reduced synergy” and the “Loewe synergy (interaction term α) of trametinib and R428” value [2] was “reduced synergy”. For the same molecule, the mitotic index (mitotic index) was “increases mitotic index”.
For S=C(NCc1ccc2c(c1)OCO2)N1CCN(c2ncnc3c2oc2ccccc23)CC1 [MP470, amuvatinib], the “efficacy of combination treatment with MAPK and RTK inhibitors (cell count)” value [3] was “efficacious”.
O=C(NOC[C@H](O)CO)c1ccc(F)c(F)c1Nc1ccc(I)cc1F [PD325901] was tested, and the “supernatant TIMP-1 and -3” value [4] was “decreases supernatant TIMP-1 and -3”, the “IC30 value averaged across the panel of cell lines” value (panel of cell lines) was ~7 µM and the “supernatant RTK accumulation” value (sheddase substrates; 24 h) was “reduced supernatant RTK accumulation”. The “surface AXL” value (surface AXL) was “increase surface AXL”, the ADAM17 homodimerization (ADAM17) was “increased ADAM17 dimerization” and the “AXL and MET ectodomain immunostaining near the tumor edge” value (MDA-MB231-LM2 cells) was “up-regulation of AXL, and MET to a lesser degree”.
Nc1nc(Nc2ccc3c(c2)CC[C@@H](N2CCCC2)CC3)nn1-c1cc2c(nn1)-c1ccccc1CCC2 [R428] was tested, and the “MPi-evoked p-JNK increase on co-treatment” value (p-JNK; MDA-MB231, co-treatment with BB94) was “eliminated”, the “IC30 value averaged across the panel of cell lines” value (panel of cell lines) was ~0.2 µM and the overall survival (LOX-IMVI cells) was “no significant effect on overall survival”.
With N#CC(=C(/N)Sc1ccccc1N)/C(C#N)=C(\N)Sc1ccccc1N [U0126] the “total AXL pY” value (AXL pY) was “increases”, the “IC30 value averaged across the panel of cell lines” value (panel of cell lines) was ~20 µM and the “supernatant accumulation of sheddase substrates” value (sheddase substrates; 24 h, each dot a different cell line, ELISA) was “reduces supernatant accumulation of sheddase substrates”. For the same molecule, the “supernatant levels of multiple sheddase substrates (AREG, HBEGF, TGFα, TNFR1, AXL, MET, HER2, HER4)” value (sheddase substrates; MDA-MB231 cells) was “consistently reduce supernatant levels of multiple sheddase substrates” and the “surface AXL” value (surface AXL) was “increase surface AXL”.
With COc1cc2c(Oc3ccc(NC(=O)C4(C(=O)Nc5ccc(F)cc5)CC4)cc3F)ccnc2cc1OCCCN1CCOCC1 [foretinib] the “efficacy of combination treatment with MAPK and RTK inhibitors (cell count)” value [3] was “efficacious”.
In the case of CNC(=O)c1cc(Oc2ccc(NC(=O)Nc3ccc(Cl)c(C(F)(F)F)c3)cc2)ccn1 [sorafenib], the “efficacy of combination treatment with MAPK and RTK inhibitors (cell count)” value [3] is reported as “effective”.
